Some test systems named below: NCI-H23 lung; SNB-75 CNS; OVCAR-8 ovarian; SNB-19 CNS; MOLT-4 leukemia; CAKI-1 renal; LOX IMVI melanoma; HOP-92 NSCLC; NCI/ADR-RES ovarian.
Assay in all cases: DTP human tumour cell line panel, 48 h

Values joined by “and” are separate entries in the source; they are usually repeats but may differ in a detail not shown here. Equal values may be shown once.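 Where inhibition never reached the appropriate level, the endpoint shown equals the highest concentration tested. Otherwise, values were interpolated linearly from a five-concentration, 48-hour dose response in 96-well plates. GI50 marks 50% less growth. TGI is the concentration that stops growth completely.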

The term TGI denotes the concentration giving total growth inhibition. In general, GI50 refers to the concentration at which growth is held to half of that of the control.

As to `C=CCN=C1NC(=O)C(CC(=O)Nc2cccc(Cl)c2)S1` (stereo unspecified), the TGI in the assay on NCI-H23 lung, in the assay with SNB-75 CNS, with OVCAR-8 ovarian, with SNB-19 CNS, in the assay with MOLT-4 leukemia and with CAKI-1 renal was > 100 µM throughout. The TGI with LOX IMVI melanoma is > 100 µM.

On to `OCC1CC2C=CCC(C2)C1` (stereo unspecified), for which the TGI in the assay on NCI-H23 lung, with SNB-75 CNS, with OVCAR-8 ovarian, in the assay with SNB-19 CNS, with MOLT-4 leukemia and with CAKI-1 renal was > 100 µM throughout. Also, the total growth inhibition concentration (TGI) in the assay with HOP-92 NSCLC and in the assay with LOX IMVI melanoma was > 100 µM each time.

For `O=C(N/C(=C\c1cccc([N+](=O)[O-])c1)c1nc2c3c(ccc2[nH]1)C(=O)c1ccccc1C3=O)c1ccccc1`, the TGI in the assay with NCI-H23 lung, in the assay with SNB-75 CNS, with OVCAR-8 ovarian, with SNB-19 CNS, in the assay on CAKI-1 renal and in the assay with HOP-92 NSCLC was > 100 µM throughout.

In the case of `CCCC[C@H](CCc1ccccc1)N(C(=O)OC)N1CCC[C@H]1COC`, the TGI with NCI-H23 lung is 32 µM; with SNB-75 CNS, 79.1 µM; in the assay with OVCAR-8 ovarian it was 71.5 µM; with SNB-19 CNS it was 30.4 µM; with MOLT-4 leukemia, > 100 µM; in the assay on CAKI-1 renal, > 100 µM. Besides, the TGI in the assay on HOP-92 NSCLC was 40.5 µM; in the assay on LOX IMVI melanoma it was 34.9 µM.

Regarding `CN1C(c2ccccc2)CC(=NO)CC1c1ccccc1` (stereo unspecified), the total growth inhibition concentration (TGI) with NCI-H23 lung was > 100 µM; in the assay on SNB-75 CNS, > 100 µM; in the assay on OVCAR-8 ovarian it was > 100 µM; in the assay with SNB-19 CNS it was > 100 µM; in the assay with MOLT-4 leukemia, 62.2 µM and 69.3 µM; with CAKI-1 renal it was > 100 µM. Moreover, the TGI in the assay with HOP-92 NSCLC was > 100 µM; in the assay on LOX IMVI melanoma, 40.7 µM. Besides, the GI50 is 48.8 µM in the assay with NCI/ADR-RES ovarian, 54.1 µM in the assay on OVCAR-8 ovarian and 23 µM in the assay on MOLT-4 leukemia.

In the case of `CCCC(=O)Oc1ccc(/C=N/NC(N)=S)nc1`, the total growth inhibition concentration (TGI) with NCI-H23 lung, with SNB-75 CNS, with OVCAR-8 ovarian, in the assay on SNB-19 CNS, in the assay with MOLT-4 leukemia and with CAKI-1 renal was > 100 µM in each case. Besides, the TGI with HOP-92 NSCLC and with LOX IMVI melanoma was > 100 µM each time.

As to `CSc1ccc(Cc2cc(C(C)(C)C)cc(C(C)(C)C)c2O)cc1`, the TGI is 28.7 µM with NCI-H23 lung; 29.7 µM in the assay with SNB-75 CNS; 30.7 µM in the assay with OVCAR-8 ovarian; 29.9 µM in the assay on SNB-19 CNS; 23.8 µM in the assay with MOLT-4 leukemia; 30.5 µM in the assay with CAKI-1 renal. The same molecule showed a TGI with LOX IMVI melanoma of 22.4 µM.

As for `CCCCSC1CCSc2c1ccc1ccccc21` (stereo unspecified), the TGI in the assay on NCI-H23 lung, in the assay with OVCAR-8 ovarian, in the assay on SNB-19 CNS, in the assay with MOLT-4 leukemia, in the assay on CAKI-1 renal and in the assay on HOP-92 NSCLC was > 100 µM in each case.

In the case of `CC(=O)CCc1ccc(Oc2c3ccccc3nc3occc23)cc1`, the GI50 in the assay on NCI-H23 lung was 13 µM; in the assay with NCI/ADR-RES ovarian it was 15.4 µM; with SNB-75 CNS it was 22.4 µM; with OVCAR-8 ovarian, 15.7 µM; with SNB-19 CNS, 19.5 µM; with CAKI-1 renal it was 18.2 µM. Besides, in the assay on LOX IMVI melanoma, the GI50 was 14.8 µM. Also, the TGI in the assay with NCI-H23 lung stood at 39.3 µM; in the assay on NCI/ADR-RES ovarian, 45.6 µM; in the assay with SNB-75 CNS it was 61 µM; in the assay with OVCAR-8 ovarian, 41.4 µM; with SNB-19 CNS, 48 µM; with CAKI-1 renal, 42 µM. Besides, in the assay on LOX IMVI melanoma, the total growth inhibition concentration (TGI) was found to be 41.8 µM.

Turning to `Nc1ccc(C(=O)CC2(O)C(=O)Nc3ccccc32)cc1` (stereo unspecified), the total growth inhibition concentration (TGI) with NCI-H23 lung, in the assay with SNB-75 CNS, in the assay with OVCAR-8 ovarian, in the assay on SNB-19 CNS, in the assay with MOLT-4 leukemia and with CAKI-1 renal was > 100 µM throughout. In addition, the concentration for total growth inhibition (TGI) in the assay on HOP-92 NSCLC and with LOX IMVI melanoma was > 100 µM each time.

On to `Clc1ccc(-c2nnc(-c3nn(-c4ccccc4)c4nc5ccccc5nc34)o2)cc1`, for which the TGI was > 100 µM in the assay on NCI-H23 lung; > 100 µM with SNB-75 CNS; > 100 µM with OVCAR-8 ovarian; > 100 µM with SNB-19 CNS; 81.6 µM in the assay with MOLT-4 leukemia; > 100 µM with CAKI-1 renal. Moreover, the concentration for total growth inhibition (TGI) with LOX IMVI melanoma was > 100 µM.

For `CC1CCCc2c1n[nH]c2CC1CC(=O)NC(=O)C1` (stereo unspecified), the TGI in the assay with NCI-H23 lung, in the assay with SNB-75 CNS, in the assay on OVCAR-8 ovarian, in the assay on SNB-19 CNS, with MOLT-4 leukemia and with CAKI-1 renal was > 100 µM throughout. Moreover, the TGI in the assay on HOP-92 NSCLC and in the assay with LOX IMVI melanoma was > 100 µM in each case.

`O=C(N/N=C/c1ccc([N+](=O)[O-])cc1)c1ccccc1Nc1ccnc(C(F)(F)F)c1`: the GI50 is 9.47 µM with NCI-H23 lung; 16.8 µM with NCI/ADR-RES ovarian; 18.2 µM with SNB-75 CNS; 11.6 µM in the assay with OVCAR-8 ovarian; 23.9 µM in the assay with SNB-19 CNS; 5.33 µM with MOLT-4 leukemia. The values for the GI50 in the assay with CAKI-1 renal and in the assay with LOX IMVI melanoma were 13.5 µM and 19.8 µM, respectively. Moreover, the concentration for total growth inhibition (TGI) was > 100 µM with NCI-H23 lung; 58.7 µM in the assay with NCI/ADR-RES ovarian; 70.3 µM in the assay with SNB-75 CNS; 49.8 µM in the assay on OVCAR-8 ovarian; > 100 µM with SNB-19 CNS; 40.5 µM in the assay with MOLT-4 leukemia. The TGI in the assay on CAKI-1 renal is 36.4 µM; in the assay on LOX IMVI melanoma, > 100 µM.

As for `COC(=O)CCCCCOS(=O)(=O)c1ccc(C)cc1`, the total growth inhibition concentration (TGI) with NCI-H23 lung, in the assay with SNB-75 CNS, with OVCAR-8 ovarian, with SNB-19 CNS, in the assay on MOLT-4 leukemia and in the assay on HOP-92 NSCLC was > 100 µM each time. Also, the concentration for total growth inhibition (TGI) in the assay on LOX IMVI melanoma was > 100 µM.
